Results from PubChem BioAssay (NCI).
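Results reflect a 48-hour exposure of cells in 96-well plates to compound at five concentrations. Definition used: TGI = concentration required for complete inhibition of growth.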

Experiments:
Assay in all cases: NCI tumour cell line growth inhibition, 48 h
A498 renal = tested on: A498 renal
A549 NSCLC = tested on: A549 NSCLC
ACHN renal = tested on: ACHN renal
HL-60(TB) leukemia = tested on: HL-60(TB) leukemia
IGROV1 ovarian = tested on: IGROV1 ovarian
NCI-H23 lung = tested on: NCI-H23 lung
NCI-H460 lung = tested on: NCI-H460 lung
NCI-H522 lung = tested on: NCI-H522 lung
NCI/ADR-RES ovarian = tested on: NCI/ADR-RES ovarian
OVCAR-3 ovarian = tested on: OVCAR-3 ovarian
OVCAR-5 ovarian = tested on: OVCAR-5 ovarian
RPMI-8226 leukemia = tested on: RPMI-8226 leukemia
RXF 393 renal = tested on: RXF 393 renal
SK-MEL-5 melanoma = tested on: SK-MEL-5 melanoma
SNB-19 CNS = tested on: SNB-19 CNS
SNB-75 CNS = tested on: SNB-75 CNS
UACC-62 melanoma = tested on: UACC-62 melanoma
HOP-62 NSCLC = tested on: HOP-62 NSCLC
MDA-N = tested on: MDA-N

Structure (SMILES) | TGI (A498 renal) [µM] | TGI (A549 NSCLC) [µM] | TGI (ACHN renal) [µM] | TGI (HL-60(TB) leukemia) [µM] | TGI (IGROV1 ovarian) [µM] | TGI (NCI-H23 lung) [µM] | TGI (NCI-H460 lung) [µM] | TGI (NCI-H522 lung) [µM] | TGI (NCI/ADR-RES ovarian) [µM] | TGI (OVCAR-3 ovarian) [µM] | TGI (OVCAR-5 ovarian) [µM] | TGI (RPMI-8226 leukemia) [µM] | TGI (RXF 393 renal) [µM] | TGI (SK-MEL-5 melanoma) [µM] | TGI (SNB-19 CNS) [µM] | TGI (SNB-75 CNS) [µM] | TGI (UACC-62 melanoma) [µM] | TGI (HOP-62 NSCLC) [µM] | TGI (MDA-N) [µM]
Cc1oc(N)c(S(=O)(=O)c2ccc(Cl)cc2)c1C | > 100 | > 100 | > 100 | > 100 | > 100 | > 100 | > 100 | > 100 | > 100 | > 100 | > 100 | > 100 | > 100 | > 100 | > 100 | > 100 | > 100 | – | –
CCOC(=O)Cc1csc2[n+]1C(=O)/C(=C/c1cccc(OC)c1O)S2 | – | > 100 | > 100 | > 100 | > 100 | > 100 | > 100 | – | > 100 | > 100 | > 100 | – | – | > 100 | > 100 | > 100 | > 100 | > 100 | > 100
CC(C)(C)NC(=O)NC12CC3CC(CC(F)(C3)C1)C2 | > 100 | > 100 | > 100 | > 100 | > 100 | > 100 | > 100 | > 100 | – | > 100 | > 100 | > 100 | > 100 | – | > 100 | > 100 | > 100 | > 100 | –
CS(=O)(=O)c1c(N)c2nc(Cl)cn2c2nc3ccccc3nc12 | – | > 100 | > 100 | – | > 100 | > 100 | > 100 | > 100 | – | > 100 | > 100 | > 100 | – | > 100 | > 100 | > 100 | > 100 | > 100 | –
C/C=C1/CN2CCC3(O)c4ccccc4N4C=C(C(=O)OC)C1CC2C43O (centres undefined) | – | > 100 | > 100 | > 100 | > 100 | > 100 | > 100 | > 100 | > 100 | > 100 | > 100 | > 100 | – | > 100 | > 100 | > 100 | > 100 | > 100 | > 100
CC1(C)CC(=O)C2=C(C1)NC1=C(C(=O)CC(C)(C)C1)C2c1ccc([N+](=O)[O-])cc1 | > 100 | > 100 | > 100 | > 100 | > 100 | > 100 | > 100 | > 100 | – | > 100 | > 100 | > 100 | > 100 | > 100 | > 100 | 69.6 | > 100 | > 100 | > 100
CCOC(=O)c1nc2ccccc2nc1Nc1ccc(OC)c(OC)c1 | – | > 100 | > 100 | > 100 | > 100 | > 100 | > 100 | > 100 | > 100 | > 100 | > 100 | > 100 | – | > 100 | > 100 | 77 | > 100 | > 100 | > 100
COc1cc(/C=C2/SC(c3ccccc3)N(c3ccccc3)C2=O)cc(OC)c1OC (centres undefined) | > 100 | > 100 | > 100 | > 100 | – | > 100 | > 100 | > 100 | > 100 | > 100 | > 100 | 66.6 | > 100 | > 100 | > 100 | – | > 100 | > 100 | –
O=C(NNC(c1ccccc1)C(F)(F)F)c1ccncc1 (centres undefined) | – | > 100 | > 100 | > 100 | > 100 | > 100 | > 100 | > 100 | > 100 | – | > 100 | > 100 | – | > 100 | > 100 | > 100 | – | > 100 | –
O=C(Nc1cc2c(=O)oc3ccccc3c2oc1=O)c1cccnc1 | – | > 100 | > 100 | > 100 | > 100 | > 100 | > 100 | > 100 | > 100 | > 100 | > 100 | – | > 100 | > 100 | > 100 | > 100 | > 100 | – | > 100
Cc1nc(C(N)=S)sc1C(/C=C/c1ccc(Cl)c(Cl)c1)=N/NC(C)(C)C | – | > 100 | > 100 | > 100 | > 100 | > 100 | > 100 | > 100 | > 100 | – | – | – | > 100 | > 100 | > 100 | > 100 | > 100 | – | > 100
CCOC(=O)Cc1csc2[n+]1C(=O)/C(=C\c1cccc(Cl)c1Cl)S2 | – | 35.8 | 45.5 | 51.5 | 50.6 | 48.9 | 45.8 | 41.3 | 33.2 | 42.1 | > 100 | – | 40.4 | 30.6 | 88 | 76.6 | 21.8 | 46.9 | 56.6
O=C(C[n+]1ccccc1)N/N=C(\Cc1nc2ccc([N+](=O)[O-])cc2[nH]c1=O)C(=O)Nc1cc(Cl)c(Cl)cc1Cl | > 100 | > 100 | > 100 | > 100 | > 100 | > 100 | > 100 | > 100 | > 100 | > 100 | > 100 | > 100 | > 100 | > 100 | > 100 | > 100 | > 100 | – | –
NC(=O)NC(=O)c1cccc(CNc2ccc(C(=O)N[C@@H](CCC(=O)O)C(=O)O)cc2)n1 | – | > 100 | > 100 | > 100 | > 100 | > 100 | > 100 | > 100 | > 100 | > 100 | > 100 | > 100 | – | > 100 | – | – | > 100 | – | > 100
CN(C)/N=C(/c1nc2ccc([N+](=O)[O-])cc2[nH]c1=O)C(O)c1ccco1 (centres undefined) | – | > 100 | > 100 | > 100 | > 100 | > 100 | > 100 | 92.2 | – | > 100 | > 100 | > 100 | > 100 | > 100 | > 100 | > 100 | > 100 | > 100 | –
O=c1[nH]c2cc([N+](=O)[O-])ccc2nc1/C(=N/Nc1ccccc1)C(O)c1ccc(C(O)/C(=N\Nc2ccccc2)c2cnc3cc([N+](=O)[O-])ccc3n2)cc1 (centres undefined) | > 100 | > 100 | > 100 | > 100 | > 100 | > 100 | > 100 | > 100 | – | > 100 | 72.9 | > 100 | > 100 | > 100 | > 100 | – | > 100 | > 100 | –
Cc1ccc(C(=O)Nc2ccc(S(=O)(=O)O)c3cc(S(=O)(=O)O)cc(S(=O)(=O)O)c23)cc1NC(=S)Nc1cc(C(=O)Nc2ccc(S(=O)(=O)O)c3cc(S(=O)(=O)O)cc(S(=O)(=O)O)c23)ccc1C | > 75 | > 75 | > 75 | > 75 | > 75 | > 75 | > 75 | > 75 | – | > 75 | > 75 | > 75 | – | > 75 | > 75 | > 75 | > 75 | > 75 | > 75
O=C(CCCNc1nc(-c2ccccc2)cs1)c1cccs1 | – | > 100 | > 100 | – | > 100 | > 100 | > 100 | > 100 | > 100 | > 100 | > 100 | > 100 | – | > 100 | > 100 | > 100 | > 100 | > 100 | > 100
C[C@]12Cc3cnn(-c4ccc(F)cc4)c3NC1CC[C@@H]1C2CC[C@@]2(C)C1CC[C@@H]2O (some centres undefined) | 23 | 30.7 | 29.4 | 11.8 | 28.5 | 18.7 | 16.6 | 25.4 | – | 46.3 | 30.5 | – | 5.09 | 15 | 56.1 | 13.3 | 23.3 | 26.1 | 21.8
CCCCc1ccc(Nc2nc(=S)c3[nH]cnc3[nH]2)cc1 | 31.7 | > 100 | 59.2 | 57.8 | 40.4 | 51.7 | > 100 | 22.8 | 40.3 | 43 | 43.5 | 90.4 | – | 25.5 | 56.8 | – | 35.1 | – | –
COP(=O)(Cc1ccccc1)Cc1ccccc1 | – | > 100 | > 100 | > 100 | > 100 | > 100 | > 100 | > 100 | > 100 | – | > 100 | > 100 | > 100 | > 100 | – | > 100 | > 100 | > 100 | –
O=C(Cc1csc(N=Nc2c(O)[nH]c3ccccc23)n1)Nc1ccccc1 | > 100 | > 100 | 54.4 | 94 | 30.5 | > 100 | > 100 | – | 41 | 93.3 | > 100 | – | > 100 | > 100 | 85.4 | 86.9 | – | 52.2 | –
